# Laboratory results taken from paper PMC8406801, “Naringenin Inhibits Platelet Activation and Arterial Thrombosis Through Inhibition of Phosphoinositide 3-Kinase and Cyclic Nucleotide Signaling” (Frontiers in Pharmacology, 2021).
# Several values for one entry are separate records, joined by “and”; a condition that tells them apart may be missing. Identical values can stand only once. Like-named read-outs stand apart in the source and are kept apart here.
# Assays:
# [1] = tested on: P-selectin exposure on washed platelets; test: ADP-stimulated P-selectin exposure (flow cytometry); format: cell-based, rat; details: ADP 10 μM; for P-selectin exposure: mean ± SD, n = 3, 86.06 ± 9.05% without naringenin; for P-selectin (%): single replicates
# Description: Flow cytometric assays were performed as described previously ([Wang et al., 2019]). ADP-stimulated P-selectin exposure and fibrinogen binding were determined in washed platelets. […] The platelets were immediately incubated with PE-labeled CD62P or FITC-labeled fibrinogen in the dark at room temperature for 15 min. The cells were finally fixed with 1% (v/v) paraformaldehyde prior to analysis using an Accuri C6 flow cytometer (BD Biosciences, United States).
# [2] = tested on: PDE extracts prepared from rat PRP (cGMP hydrolysis); test: Phosphodiesterase activity in platelet extracts, hydrolysis of cGMP (HPLC); format: biochemical; details: vehicle = 100%, single replicates
# Description: The effects of naringenin on PDE activity were determined using high-performance liquid chromatography (HPLC) ([Hu et al., 2011]). Briefly, PRP was pelleted by centrifugation for 10 min at 900 × g and homogenized in PBS containing 0.1% Triton X-100 using an ultrasonic homogenizer. After centrifugation at 12,000 × g for 20 min at 4°C, the supernatant was subjected to PDE activity assay.
# DMSO vehicle or different concentrations naringenin were added to assay buffer (137 mM NaCl, 2.7 mM KCl, 8.8 mM Na2HPO4, 1.5 mM KH2PO4, 1 mM CaCl2, 1 mM MgCl2, pH 7,4) containing cAMP or cGMP. The reaction was initiated by adding 30 μL PDE extracts prepared from rat PRP as described above. Some extracts were boiled for 3 min to inactivate PDE before addition. After incubation for 30 min at […], the reaction was terminated by boiling the mixture for 3 min. Subsequently, the mixture was cooled on ice followed by centrifugation at 12,000 × g for 20 min at 4°C. The supernatant was subjected cAMP or cGMP assay using HPLC. PDE activity was expressed as percentages of the hydrolysis of cAMP or cGMP.
# [3] = tested on: cAMP; test: Measurement of cAMP in washed platelets (ELISA); format: cell-based, rat; details: single replicates
# Description: Washed platelets were preincubated with vehicle or various concentrations of naringenin in the presence of 2 mM CaCl2 at 37°C for 5 min and then stimulated with ADP (10 μM) for 5 min for platelet aggregation. The reaction was terminated by adding EDTA (10 mM). The platelets were boiled for 5 min at 100 °C followed by centrifugation at 13,000 × g for 5 min cAMP and cGMP levels in the supernatant were measured using cAMP or cGMP enzyme immunoassay kits (Cayman Chemicals, Ann Arbor, MI, United States).
# FIGURE 6 Naringenin elevates platelet cGMP levels and inhibits phosphodiesterase activity. The levels of cAMP (A) and cGMP (B) in washed platelets preincubated with vehicle or naringenin (100, 200, 400, and 800 μmol/L) were determined after stimulation with ADP (10 μmol/L) using ELISA kits. Similarly, the levels of cAMP (C) and cGMP (D) were determined in resting platelets incubated with naringenin (200, 400, and 800 μmol/L) or vehicle for 5 min. R represents the levels of cAMP or cGMP in resting platelets. Data are expressed as means ± SD (n = 4). *p < 0.05, ***p < 0.001 compared with the vehicle control group. The effects of naringenin on phosphodiesterase activity were measured by HPLC on the hydrolysis of cAMP (E) and cGMP (F). The level of phosphodiesterase activity obtained with vehicle control (0 μM) was taken as 100%. Data are expressed as means ± SD (n = 3). *p < 0.05, ***p < 0.001 compared with the vehicle control group.
# [4] = tested on: washed rat platelets; test: Thrombin (0.2 U/mL)-induced aggregation of washed platelets; format: cell-based; details: for Aggregation (%) / Aggregation % of control: washed platelets, single replicates; for Aggregation (%): raw data
# Description: Washed rat platelets were prepared as described previously ([Gao et al., 2011]) with a minor modification. Briefly, rat blood was drawn from the abdominal aorta into the siliconized vacutainers containing 1:9 (v/v) 3.8% sodium citrate, supplemented with 100 ng/ml prostaglandin E1 (PGE1) and centrifuged at 300 × g for 6 min at room temperature. Platelet-rich plasma (PRP) was obtained, and after the addition of 100 ng/ml PGE1, platelets were pelleted at 900 × g for 10 min. Platelets were washed once in Tyrode’s buffer (12 mM NaHCO3, 138 mM NaCl, 5.5 mM glucose, 2.9 mM KCl, 2 mM MgCl2, 0.42 mM NaH2PO4, 10 mM HEPES, pH 7.4) containing 100 ng/ml PGE1, and finally resuspended in Tyrode’s buffer containing 0.02 U/mL apyrase to a final concentration of 4×10^8 cells/mL. Washed platelets were preincubated with vehicle (0.4% dimethyl sulfoxide) or various concentrations of naringenin in the presence of 2 mM CaCl2 for 5 min at 37°C, and then further stimulated by ADP (10 μM), thrombin (0.2 U/mL) or collagen (2 μg/ml). The maximum platelet aggregation rate was detected within 5 min with continuous stirring.
# FIGURE 1 Effects of naringenin and naringin on platelet aggregation. Chemical structure of naringin (A) and naringenin (B). The effects of naringin (C) or naringenin (D) on PRP were measured following stimulation with 10 μmol/L ADP. Rat washed platelet aggregation performed with or without different concentrations of naringin (E) or naringenin (F) was recorded after stimulation with 10 μmol/L ADP. Similarly, Washed platelet aggregation performed with vehicle or various concentrations of naringenin was recorded after stimulation with 0.2 U/mL thrombin (G) or 2 μg/ml collagen (H). WP represents washed platelets. Data are expressed as means ± SD (n = 6), the level of aggregation obtained at 5 min with vehicle-treated samples (0 μM) was taken as 100%. *p < 0.05, **p < 0.01, ***p < 0.001 compared with the vehicle control group.
compound,measurement,setting,value
O=C1C[C@@H](c2ccc(O)cc2)Oc2cc(O)cc(O)c21 [Naringenin],P-selectin exposure,[1]; 200 μM,58.33 ± 7.86%
same,P-selectin (%),[1]; 200 μM,50.70% and 58.70% and 65.60%
same,P-selectin exposure,[1]; 400 μM,35.12 ± 11.91%
same,P-selectin (%),[1]; 400 μM,22.54% and 46.23% and 36.58%
same,P-selectin exposure,[1]; 800 μM,31.56 ± 7.26%
same,P-selectin (%),[1]; 800 μM,24.10% and 32.22% and 38.35%
same,PDE activity (%),[2]; 100 μM,55.89% and 98.26% and 70.79%
same,PDE activity (%),[2]; 200 μM,55.23% and 54.30% and 66.68%
same,PDE activity (%),[2]; 400 μM,64.97% and 53.69% and 55.23%
same,PDE activity (%),[2]; 800 μM,56.89% and 50.38% and 49.55%
same,cAMP release,"[3]; ADP 10 μmol/L-stimulated platelets, 100 μM",21.36 pmol/mL and 22.41 pmol/mL and 21.09 pmol/mL and 22.01 pmol/mL
same,cAMP release,"[3]; ADP 10 μmol/L-stimulated platelets, 200 μM",21.75 pmol/mL and 22.14 pmol/mL and 22.01 pmol/mL and 23.59 pmol/mL
same,cAMP release,"[3]; ADP 10 μmol/L-stimulated platelets, 400 μM",27.54 pmol/mL and 26.36 pmol/mL and 22.01 pmol/mL and 20.04 pmol/mL
same,cAMP release,"[3]; ADP 10 μmol/L-stimulated platelets, 800 μM",22.54 pmol/mL and 21.62 pmol/mL and 23.20 pmol/mL and 26.75 pmol/mL
same,cAMP release,"[3]; resting platelets, 200 μM, 5 min",19.51 pmol/mL and 23.07 pmol/mL and 21.88 pmol/mL and 25.17 pmol/mL
same,cAMP release,"[3]; resting platelets, 400 μM, 5 min",23.59 pmol/mL and 22.67 pmol/mL and 21.88 pmol/mL and 20.96 pmol/mL
same,cAMP release,"[3]; resting platelets, 800 μM, 5 min",19.64 pmol/mL and 23.59 pmol/mL and 22.67 pmol/mL and 22.14 pmol/mL
same,IC50,[4],~684 µM
same,IC50,"[4]; Rattus norvegicus, Platelet",684 ± 80.8 µM
same,Aggregation (%),[4]; 100 μM,77.1% and 76.2% and 52.9% and 66.7% and 72.2% and 88.4%
same,Aggregation % of control,[4]; 100 μM,95.0 % of control and 93.9 % of control and 65.2 % of control and 82.2 % of control and 88.9 % of control and 108.9 % of control
same,Aggregation (%),[4]; 200 μM,79.6% and 67.1% and 56.9% and 52.0% and 48.0% and 62.4%
same,Aggregation % of control,[4]; 200 μM,98.1 % of control and 82.7 % of control and 70.1 % of control and 64.1 % of control and 59.1 % of control and 76.9 % of control
same,Aggregation (%),[4]; 400 μM,77.0% and 53.3% and 68.0% and 42.9% and 66.7% and 43.5%
same,Aggregation % of control,[4]; 400 μM,94.9 % of control and 65.7 % of control and 83.8 % of control and 52.9 % of control and 82.2 % of control and 53.6 % of control
same,Aggregation (%),[4]; 800 μM,45.5% and 30.8% and 28.0% and 42.4% and 22.5% and 36.0%
same,Aggregation % of control,[4]; 800 μM,56.1 % of control and 37.9 % of control and 34.5 % of control and 52.2 % of control and 27.7 % of control and 44.4 % of control
